Test results: the supplement of paper PMC10307832

Key:
Experiment in all cases: relative viability (nuclei count vs DMSO), 5 days (fraction); higher = more cells survive
NCI-H2023 = system: NCI-H2023
Method in brief: (§1)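 Dosing by pin tool came one day after lung cancer cell lines were seeded in 1536-well plates, using either one drug or a fixed anchor-drug dose plus five library-drug doses (not always all listed) in √10 steps. After 5 days, nuclei were counted on 4× images. Relative viability is treated-well nuclei count divided by vehicle-well nuclei count, and values are medians of duplicate plates.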

BEN = system: BEN
Method in brief: as §1

NCI-H3122 = system: NCI-H3122
Method in brief: as §1

NCI-H1666 = system: NCI-H1666
Method in brief: as §1

COR-L 105 = system: COR-L 105
Method in brief: as §1

NCI-H1437 = system: NCI-H1437
Method in brief: as §1

HCC-366 = system: HCC-366
Method in brief: as §1

NCI-H661 = system: NCI-H661
Method in brief: as §1

LK-2 = system: LK-2
Method in brief: as §1

PC-14 = system: PC-14
Method in brief: as §1

EKVX = system: EKVX
Method in brief: as §1

COR-L23 = system: COR-L23
Method in brief: as §1

ABC-1 = system: ABC-1
Method in brief: as §1

NCI-H2009 = system: NCI-H2009
Method in brief: as §1

NCI-H441 = system: NCI-H441
Method in brief: as §1

HARA = system: HARA
Method in brief: as §1

SW 900 = system: SW 900
Method in brief: as §1

NCI-H727 = system: NCI-H727
Method in brief: as §1

201T = system: 201T
Method in brief: as §1

LU99A = system: LU99A
Method in brief: as §1

NCI-H2170 = system: NCI-H2170
Method in brief: as §1

NCI-H1650 = system: NCI-H1650
Method in brief: as §1

CAL-12T = system: CAL-12T
Method in brief: as §1

NCI-H838 = system: NCI-H838
Method in brief: as §1

C[C@@H]1CN(CC(=O)Nc2ccc3c(c2)Cc2cccc(-c4cc(=O)cc(N5CCOCC5)o4)c2S3)C[C@H](C)O1 + O=C(c1cc(Cc2n[nH]c(=O)c3ccccc23)ccc1F)N1CCN(C(=O)C2CC2)CC1 [Olaparib] (partner 8 µM) showed a relative viability (NCI-H2023; first compound 0.04 µM) of 0.441, a relative viability (NCI-H2023; first compound 0.1265 µM) of 0.371 and a relative viability (NCI-H2023; first compound 0.4 µM) of 0.329. The relative viability (NCI-H2023; first compound 4 µM) was 0.148, the relative viability (BEN; first compound 0.04 µM) was 0.969 and the relative viability (BEN; first compound 0.1265 µM) was 1.13. The relative viability (BEN; first compound 0.4 µM) was 1.11, the relative viability (BEN; first compound 4 µM) was 0.69 and the relative viability (NCI-H3122; first compound 0.04 µM) was 0.607. The relative viability (NCI-H3122; first compound 0.1265 µM) was 0.591, the relative viability (NCI-H3122; first compound 0.4 µM) was 0.645 and the relative viability (NCI-H3122; first compound 4 µM) was 0.518. For the same molecule, the relative viability (NCI-H1666; first compound 0.04 µM) was 0.713, the relative viability (NCI-H1666; first compound 0.1265 µM) was 0.767 and the relative viability (NCI-H1666; first compound 0.4 µM) was 0.659. It also gave a relative viability (NCI-H1666; first compound 4 µM) of 0.468, a relative viability (COR-L 105; first compound 0.04 µM) of 0.772 and a relative viability (COR-L 105; first compound 0.1265 µM) of 0.786. It also gave a relative viability (COR-L 105; first compound 0.4 µM) of 0.822, a relative viability (COR-L 105; first compound 4 µM) of 0.647 and a relative viability (NCI-H1437; first compound 0.04 µM) of 0.613. It also gave a relative viability (NCI-H1437; first compound 0.1265 µM) of 0.635, a relative viability (NCI-H1437; first compound 0.4 µM) of 0.598 and a relative viability (NCI-H1437; first compound 4 µM) of 0.352. For the same molecule, the relative viability (HCC-366; first compound 0.04 µM) was 0.43, the relative viability (HCC-366; first compound 0.1265 µM) was 0.489 and the relative viability (HCC-366; first compound 0.4 µM) was 0.44. It also gave a relative viability (HCC-366; first compound 4 µM) of 0.055, a relative viability (NCI-H661; first compound 0.04 µM) of 0.814 and a relative viability (NCI-H661; first compound 0.1265 µM) of 0.77. The relative viability (NCI-H661; first compound 0.4 µM) was 0.784, the relative viability (NCI-H661; first compound 4 µM) was 0.622 and the relative viability (LK-2; first compound 0.04 µM) was 0.852. For the same molecule, the relative viability (LK-2; first compound 0.1265 µM) was 0.724, the relative viability (LK-2; first compound 0.4 µM) was 0.575 and the relative viability (LK-2; first compound 4 µM) was 0.321. It also gave a relative viability (PC-14; first compound 0.04 µM) of 0.249, a relative viability (PC-14; first compound 0.1265 µM) of 0.169 and a relative viability (PC-14; first compound 0.4 µM) of 0.205. For the same molecule, the relative viability (PC-14; first compound 4 µM) was 0.09, the relative viability (EKVX; first compound 0.04 µM) was 0.862 and the relative viability (EKVX; first compound 0.1265 µM) was 0.921. It also gave a relative viability (EKVX; first compound 0.4 µM) of 0.914, a relative viability (EKVX; first compound 4 µM) of 0.399 and a relative viability (COR-L23; first compound 0.04 µM) of 0.39. It also gave a relative viability (COR-L23; first compound 0.1265 µM) of 0.329, a relative viability (COR-L23; first compound 0.4 µM) of 0.323 and a relative viability (COR-L23; first compound 4 µM) of 0.185. For the same molecule, the relative viability (ABC-1; first compound 0.04 µM) was 0.729, the relative viability (ABC-1; first compound 0.1265 µM) was 1.22 and the relative viability (ABC-1; first compound 0.4 µM) was 0.804. It also gave a relative viability (ABC-1; first compound 4 µM) of 1.08, a relative viability (NCI-H2009; first compound 0.04 µM) of 0.71 and a relative viability (NCI-H2009; first compound 0.1265 µM) of 0.691. It also gave a relative viability (NCI-H2009; first compound 0.4 µM) of 0.649, a relative viability (NCI-H2009; first compound 4 µM) of 0.274 and a relative viability (NCI-H441; first compound 0.04 µM) of 0.636. For the same molecule, the relative viability (NCI-H441; first compound 0.1265 µM) was 0.551, the relative viability (NCI-H441; first compound 0.4 µM) was 0.507 and the relative viability (NCI-H441; first compound 4 µM) was 0.141. The relative viability (HARA; first compound 0.04 µM) was 0.932, the relative viability (HARA; first compound 0.1265 µM) was 0.779 and the relative viability (HARA; first compound 0.4 µM) was 0.87. It also gave a relative viability (HARA; first compound 4 µM) of 0.22, a relative viability (SW 900; first compound 0.04 µM) of 0.869 and a relative viability (SW 900; first compound 0.1265 µM) of 0.993. For the same molecule, the relative viability (SW 900; first compound 0.4 µM) was 0.815, the relative viability (SW 900; first compound 4 µM) was 0.445 and the relative viability (NCI-H727; first compound 0.04 µM) was 0.831. The relative viability (NCI-H727; first compound 0.1265 µM) was 0.77, the relative viability (NCI-H727; first compound 0.4 µM) was 0.835 and the relative viability (NCI-H727; first compound 4 µM) was 0.64. For the same molecule, the relative viability (201T; first compound 0.04 µM) was 0.839, the relative viability (201T; first compound 0.1265 µM) was 0.816 and the relative viability (201T; first compound 0.4 µM) was 0.793. For the same molecule, the relative viability (201T; first compound 4 µM) was 0.783, the relative viability (LU99A; first compound 0.04 µM) was 0.316 and the relative viability (LU99A; first compound 0.1265 µM) was 0.282. For the same molecule, the relative viability (LU99A; first compound 0.4 µM) was 0.259, the relative viability (LU99A; first compound 4 µM) was 0.246 and the relative viability (NCI-H2170; first compound 0.04 µM) was 0.648. The relative viability (NCI-H2170; first compound 0.1265 µM) was 0.609, the relative viability (NCI-H2170; first compound 0.4 µM) was 0.578 and the relative viability (NCI-H2170; first compound 4 µM) was 0.523. The relative viability (NCI-H1650; first compound 0.04 µM) was 0.731, the relative viability (NCI-H1650; first compound 0.1265 µM) was 0.713 and the relative viability (NCI-H1650; first compound 0.4 µM) was 0.967. It also gave a relative viability (NCI-H1650; first compound 4 µM) of 0.282, a relative viability (CAL-12T; first compound 0.04 µM) of 0.81 and a relative viability (CAL-12T; first compound 0.1265 µM) of 0.739. It also gave a relative viability (CAL-12T; first compound 0.4 µM) of 0.656, a relative viability (CAL-12T; first compound 4 µM) of 0.168 and a relative viability (NCI-H838; first compound 0.04 µM) of 0.746. For the same molecule, the relative viability (NCI-H838; first compound 0.1265 µM) was 0.685, the relative viability (NCI-H838; first compound 0.4 µM) was 0.739 and the relative viability (NCI-H838; first compound 4 µM) was 0.323.
